{
  "source": "ChEMBL document CHEMBL6115007",
  "about": "“Synthesis and in vitro and in vivo evaluation of novel bivalent quinolines as antitumor agents via targeting autophagy in cervical cancer” (Eur J Med Chem, 2025)",
  "key": {"Ca-Ski [1]": {"test_system": "Ca-Ski", "test": "Induction of apoptosis in human Ca Ski cells assessed as necrotic cells at 0.5 uM preincubated with Z-VAD-FMK for 1 hrs followed by compound addition and measured after 24 hrs by Annexin V-FITC/PI staining based flow cytometric analysis (reference value: 1.54 %)", "format": "functional"}, "[2]": {"test": "Toxicity in female BALB/c mouse xenografted with human HeLa cells assessed as effect on AST level at 4 to 8 mg/kg administered every four days and measured after 26 days", "format": "organism-based", "conditions": "in vivo, 624 h, dose 4-8 mg/kg, time 26 day"}, "Ca-Ski [3]": {"test_system": "Ca-Ski", "test": "Effect on PARP expression level in Bax deficient human Ca Ski cells at 0.5 to 1 uM incubated for 24 hrs by Western blot analysis", "format": "functional, cell-based", "conditions": "dose 0.5-1 µM"}, "HeLa [4]": {"test_system": "HeLa", "test": "Induction of autophagy in human HeLa cells assessed as increase in p62 level at 0.3 to 1.2 microM incubated for 24 hrs by Western blot analysis", "format": "functional, cell-based", "conditions": "dose 0.3-1.2 µM"}, "Ca-Ski [5]": {"test_system": "Ca-Ski", "test": "Induction of autophagy in human Ca Ski cells transfected with mRFP-GFP-LC3 plasmid assessed as decrease in GFP fluorescence at 25 uM incubated for 24 hrs by DAPI staining based fluorescence confocal microscopic analysis", "format": "functional, cell-based"}, "[6]": {"test": "Toxicity in female BALB/c mouse xenografted with human HeLa cells assessed as effect on platelet level at 4 to 8 mg/kg administered every four days and measured after 26 days", "format": "organism-based", "conditions": "in vivo, 624 h, dose 4-8 mg/kg, time 26 day"}, "HeLa [7]": {"test_system": "HeLa", "test": "Effect on cleaved PARP expression level in human HeLa cells at 0.3 to 1.2 uM incubated for 24 hrs by Western blot analysis", "format": "functional, cell-based", "conditions": "dose 0.3-1.2 µM"}, "HeLa [8]": {"test_system": "HeLa", "test": "Antiproliferative activity against ATG5 deficient human HeLa cells assessed as inhibition of cell viability incubated for 24 hrs by CCK8 assay", "format": "functional, cell-based"}, "HeLa [9]": {"test_system": "HeLa", "test": "Antiproliferative activity against human HeLa cells assessed as inhibition of cell growth at 0.4 to 1.6 uM by CCK8 assay", "format": "functional, cell-based", "conditions": "dose 0.4-1.6 µM, time 6.0 day"}, "HeLa [10]": {"test_system": "HeLa", "test": "Induction of apoptosis in human HeLa cells assessed as late apoptotic cells at 1.2 uM preincubated with Z-VAD-FMK for 1 hrs followed by compound addition and measured after 24 hrs by Annexin V-FITC/PI staining based flow cytometric analysis (reference value: 1.02 %)", "format": "functional"}, "HeLa [11]": {"test_system": "HeLa", "test": "Effect on TRFC protein expression level in human HeLa cells at 0.6 uM incubated for 24 hrs by Western blot analysis", "format": "functional, cell-based"}, "HeLa [12]": {"test_system": "HeLa", "test": "Antiproliferative activity against human HeLa cells assessed as reduction in cell optical density incubated for 48 hrs by MTT assay", "format": "functional, cell-based"}, "HeLa [13]": {"test_system": "HeLa", "test": "Induction of autophagy in human HeLa cells transfected with mRFP-GFP-LC3 plasmid assessed as decrease in GFP fluorescence at 0.4 to 0.8 uM incubated for 24 hrs by DAPI staining based fluorescence confocal microscopic analysis", "format": "functional, cell-based", "conditions": "dose 0.4-0.8 µM"}, "Ca-Ski [14]": {"test_system": "Ca-Ski", "test": "Antiproliferative activity against Bax deficient human Ca Ski cells assessed as inhibition of cell viability incubated for 24 hrs by CCK8 assay", "format": "functional, cell-based"}, "HeLa [15]": {"test_system": "HeLa", "test": "Induction of autophagolysosome formation in human HeLa cells transfected with mRFP-GFP-LC3 plasmid assessed as increase in ratio of mRFP to GFP puncta at 0.4 to 0.8 uM incubated for 24 hrs", "format": "functional, cell-based", "conditions": "dose 0.4-0.8 µM"}, "Ca-Ski [16]": {"test_system": "Ca-Ski", "test": "Inhibition of colony formation in ATG7 deficient human Ca Ski cells at 0.1 to 0.4 uM incubated for 24 hrs by crystal violet staining based analysis", "format": "functional, cell-based", "conditions": "dose 0.1-0.4 µM"}, "HeLa [17]": {"test_system": "HeLa", "test": "Induction of apoptosis in human HeLa cells assessed as late apoptotic cells at 0.6 uM preincubated with Z-VAD-FMK for 1 hrs followed by compound addition and measured after 24 hrs by Annexin V-FITC/PI staining based flow cytometric analysis (reference value: 1.02 %)", "format": "functional"}, "Ca-Ski [18]": {"test_system": "Ca-Ski", "test": "Effect on TRFC protein expression level in human Ca Ski cells at 0.5 uM incubated for 24 hrs by Western blot analysis", "format": "functional, cell-based"}, "Ca-Ski [19]": {"test_system": "Ca-Ski", "test": "Antiproliferative activity against human Ca Ski cells assessed as inhibition of cell viability incubated for 24 hrs by CCK8 assay", "format": "functional, cell-based"}, "HeLa [20]": {"test_system": "HeLa", "test": "Inhibition of colony formation in ATG5 deficient human HeLa cells at 0.15 to 0.6 uM incubated for 24 hrs by crystal violet staining based analysis", "format": "functional, cell-based", "conditions": "dose 0.15-0.6 µM"}, "HeLa [21]": {"test_system": "HeLa", "test": "Induction of autophagy in human HeLa cells transfected with mRFP-GFP-LC3 plasmid assessed as appearance of RFP puncta clusters as aggregates in cytoplasm at 0.4 to 0.8 uM incubated for 24 hrs by DAPI staining based fluorescence confocal microscopic analysis", "format": "functional, cell-based", "conditions": "dose 0.4-0.8 µM"}, "Ca-Ski [22]": {"test_system": "Ca-Ski", "test": "Induction of morphological changes in human Ca Ski cells assessed as increase in appearance of round cells at 0.5 to 2 uM by microphotographic analysis", "format": "functional, cell-based", "conditions": "dose 0.5-2 µM"}, "C-33-A [23]": {"test_system": "C-33-A", "test": "Antiproliferative activity against human C-33-A cells assessed as inhibition of cell viability incubated for 24 hrs by CCK8 assay", "format": "functional, cell-based"}, "HeLa [24]": {"test_system": "HeLa", "test": "Inhibition of colony formation in human HeLa cells assessed as reduction in colony forming unit count at 0.15 to 0.6 uM incubated for 24 hrs by crystal violet staining based analysis", "format": "functional, cell-based", "conditions": "dose 0.15-0.6 µM"}, "HeLa [25]": {"test_system": "HeLa", "test": "Induction of apoptosis in human HeLa cells assessed as viable cells at 1.2 uM incubated for 24 hrs by Annexin V-FITC/PI staining based flow cytometric analysis (reference value: 96.2 %)", "format": "functional", "conditions": "read-out: Activity"}, "Ca-Ski [26]": {"test_system": "Ca-Ski", "test": "Effect on cleaved caspase 3 expression level in human Ca Ski cells at 0.25 to 1 uM incubated for 24 hrs by Western blot analysis", "format": "functional, cell-based", "conditions": "dose 0.25-1 µM"}, "Ca-Ski [27]": {"test_system": "Ca-Ski", "test": "Induction of autophagy in human Ca Ski cells transfected with mRFP-GFP-LC3 plasmid assessed as decrease in GFP fluorescence at 0.3 to 0.6 uM incubated for 24 hrs by DAPI staining based fluorescence confocal microscopic analysis", "format": "functional, cell-based", "conditions": "dose 0.3-0.6 µM"}, "HeLa [28]": {"test_system": "HeLa", "test": "Effect on cleaved caspase 3 expression level in human HeLa cells at 0.3 to 1.2 uM incubated for 24 hrs by Western blot analysis", "format": "functional, cell-based", "conditions": "dose 0.3-1.2 µM"}, "Ca-Ski [29]": {"test_system": "Ca-Ski", "test": "Effect on caspase 3 expression level in p53 deficient human Ca Ski cells at 0.5 to 1 uM incubated for 24 hrs by Western blot analysis", "format": "functional, cell-based", "conditions": "dose 0.5-1 µM"}, "[30]": {"test": "Toxicity in female BALB/c mouse xenografted with human HeLa cells assessed as effect on WBC level at 4 to 8 mg/kg administered every four days and measured after 26 days", "format": "organism-based", "conditions": "in vivo, 624 h, dose 4-8 mg/kg, time 26 day"}, "HeLa [31]": {"test_system": "HeLa", "test": "Induction of apoptosis in human HeLa cells assessed as necrotic cells at 1.2 uM incubated for 24 hrs by Annexin V-FITC/PI staining based flow cytometric analysis (reference value: 1.88 %)", "format": "functional"}, "C-33-A [32]": {"test_system": "C-33-A", "test": "Induction of morphological changes in human C-33-A cells assessed as increase in inflated cell appearance at 0.3 to 1.2 uM by microphotographic analysis", "format": "functional, cell-based", "conditions": "dose 0.3-1.2 µM"}, "Ca-Ski [33]": {"test_system": "Ca-Ski", "test": "Effect on ACSL4 protein expression level in human Ca Ski cells at 0.5 uM incubated for 24 hrs by Western blot analysis", "format": "functional, cell-based"}, "MCF7": {"test_system": "MCF7", "test": "Antiproliferative activity against human MCF7 cells assessed as reduction in cell optical density incubated for 48 hrs by MTT assay", "format": "functional, cell-based", "conditions": "MCF7, 48 h"}},
  "note": "Calls of active or inactive are those of the source. No cut-off for these calls is given here.",
  "data": [
    {"compound": "COc1cccc(Nc2ccnc3cc(OCCCCCOc4ccc5c(Nc6cccc(OC)c6)ccnc5c4)ccc23)c1", "values": [
      {"measurement": "Activity", "setting": "Ca-Ski [1]", "value": 1.4, "unit": "%"},
      {"measurement": "Activity", "setting": "[2]", "value": "Non-toxic"},
      {"measurement": "Activity", "setting": "Ca-Ski [3]", "value": "inactive"},
      {"measurement": "Activity", "setting": "HeLa [4]", "value": "Active"},
      {"measurement": "Activity", "setting": "Ca-Ski [5]", "value": "Active"},
      {"measurement": "Activity", "setting": "[6]", "value": "Non-toxic"},
      {"measurement": "Activity", "setting": "HeLa [7]", "value": "inactive"},
      {"measurement": "IC50", "setting": "HeLa [8]", "value": 1630, "unit": "nM"},
      {"measurement": "Activity", "setting": "HeLa [9]", "value": "Time-dependent-effect"},
      {"measurement": "Activity", "setting": "HeLa [10]", "value": 3.71, "unit": "%"},
      {"measurement": "Activity", "setting": "HeLa [11]", "value": "inactive"},
      {"measurement": "IC50", "setting": "HeLa [12]", "value": 3.71, "unit": "µM"},
      {"measurement": "Activity", "setting": "HeLa [13]", "value": "Active"},
      {"measurement": "IC50", "setting": "Ca-Ski [14]", "value": 993, "unit": "nM"},
      {"measurement": "Activity", "setting": "HeLa [15]", "value": "Active"},
      {"measurement": "inhibition", "setting": "Ca-Ski [16]", "value": "Minimal_effect"},
      {"measurement": "Activity", "setting": "HeLa [17]", "value": 2.8, "unit": "%"},
      {"measurement": "Activity", "setting": "Ca-Ski [18]", "value": "inactive"},
      {"measurement": "Activity", "setting": "Ca-Ski [19]", "value": "Dose-dependent-effect"},
      {"measurement": "IC50", "setting": "Ca-Ski [19]", "value": 775, "unit": "nM"},
      {"measurement": "inhibition", "setting": "HeLa [20]", "value": "Minimal_effect"},
      {"measurement": "Activity", "setting": "HeLa [21]", "value": "Active"},
      {"measurement": "Activity", "setting": "Ca-Ski [22]", "value": "Active"},
      {"measurement": "Activity", "setting": "C-33-A [23]", "value": "Dose-dependent-effect"},
      {"measurement": "IC50", "setting": "C-33-A [23]", "value": 807, "unit": "nM"},
      {"measurement": "inhibition", "setting": "HeLa [24]", "value": "Active"},
      {"measurement": "viability at 1.2 µM", "setting": "HeLa [25]", "value": 93.2, "unit": "%"},
      {"measurement": "Activity", "setting": "Ca-Ski [26]", "value": "inactive"},
      {"measurement": "Activity", "setting": "Ca-Ski [27]", "value": "Active"},
      {"measurement": "Activity", "setting": "HeLa [28]", "value": "inactive"},
      {"measurement": "Activity", "setting": "Ca-Ski [29]", "value": "inactive"},
      {"measurement": "Activity", "setting": "[30]", "value": "Non-toxic"},
      {"measurement": "Activity", "setting": "HeLa [31]", "value": 1.47, "unit": "%"},
      {"measurement": "Activity", "setting": "C-33-A [32]", "value": "Active"},
      {"measurement": "Activity", "setting": "Ca-Ski [33]", "value": "Moderate_effect"},
      {"measurement": "IC50", "setting": "MCF7", "value": 3.08, "unit": "µM"}
    ]}
  ]
}
